# According to patent US20230235374A1, “High Throughput Assays for Detecting Translation Readthrough Inducers” (The Trustees of the University of Pennsylvania, priority 2021, published 2023):
# Key:
# [1] = tested on: Stop-POST5 / Stop-PRE6 complex; experiment: High throughput translocation assay (proflavin fluorescence, plate reader); type: biochemical; conditions: FIG. 17B
# Excerpt: FIGS. 17A, 17B, 17C, and 17D are graphs showing data from the high throughput translocation assay. FIG. 17A is a graph showing a stable prf-fluorescence increase at different G418 concentrations [G418] due to eEF2-dependent conversion of a Stop-PRE6 complex to a Stop-POST6 complex, resulting from the increase in quantum yield of Trp-tRNA(prf). FIG. 17B is a graph showing fluorescence results in FIG. 17A as a function of [G418]. FIG. 17C is a graph showing the kinetics of Stop-PRE6 translocation, measured at 1 μM eEF2 and 2 μM G418. FIG. 17D is a graph showing the kinetics of Trp-PRE6 translocation to Trp-POST6 measured at 0.05 μM of eEF2 in the absence of G418.
# Different proflavin-labeled aa-tRNAs, denoted aa-tRNA(prf)s, were used to monitor the elongation cycle changes by fluorescence change at 511 nm following excitation at 458 nm (Ng et al. PNAS, 118(2) e2020599118, 1-10 (2021)). Binding of Trp-TC(prf) to a Trp-POST5 complex in the presence of eEF2 lead to a biphasic increase, with the first, more rapid phase corresponding to formation of Trp-PRE6, followed by a slower, eEF2-dependent phase corresponding to conversion of Trp-PRE6 into Trp-POST6. The translocation step was monitored using a plate-reader assay for both G418-stimulated readthrough of Stop-POST5 (FIGS. 17A-17C) and cognate elongation of Trp-POST5 (FIG. 17D) by adjustment of [eEF2].
# eRF1 = target: T1, eRF1 (Saccharomyces cerevisiae, UniProt P12385); experiment: [3H]-AzAt photoaffinity labeling of isolated eRF1; type: binding; conditions: FIG. 2E
# T1 construct: made in house; host or cells: E. coli BL21(DE3) CodonPlus
# Protocol: (§1) Photoaffinity labeling with [^3H]-AzAt. Samples in Buffer 4, typically 20 μL, were incubated in the dark (20 min for Stop-POST5 and 80S-IRES complexes, 2 min for release factors) with various concentrations of [^3H]-AzAt at 37° C., transferred to a UV-transparent cuvette which was covered with parafilm to prevent evaporation, and irradiated in a Rayonet photochemical reactor equipped with 300 nm UV lamps for 5 min at room temperature. This was followed by quenching with 2 mM DTT at 37° C. for 5 min under ambient light. The irradiation time gave complete photolysis of the phenyl azide moiety in AzAt. Photolysis was also complete at 5 min in the presence of 1 mM ataluren, ruling out internal filtering effects.
# (§2) Photoaffinity labeling of release factors. Solutions containing eRF1 (10 μM), eRF3 (20 μM) and 1 mM GMPPMP were pre-incubated at 37° C. for 2 min to form the ternary complex prior to photolabeling with [^3H]-AzAt. After quenching, reaction mixtures were loaded onto a 4-15% mini protean SDS-PAGE gel for protein separation and isolation. Gel slices containing eRF1 or eRF3, as shown by Coomassie Blue R250 staining, were crushed and the radioactivity was extracted in extraction buffer (50 mM Tris-HCl, 150 mM NaCl, and 0.1 mM EDTA; pH 7.5) by vigorously shaking at 70° C. for 30 min. The data fitting was performed using the software Prism. Labeling results of eRF1 alone and within the eRF1.eRF3.GDPNP complex were fit with a one-site binding model and a two-site binding model, respectively.
# [2] = target: T2, eRF1.eRF3.GDPNP ternary complex (Saccharomyces cerevisiae, UniProt P12385); experiment: [3H]-AzAt photoaffinity labeling of eRF1 within ternary complex; type: binding; conditions: compared with isolated eRF1, FIG. 2E
# T2 construct: made in house; host or cells: E. coli BL21(DE3) CodonPlus
# Protocol: as §1, §2
# [3] = tested on: Small RNAs within Stop-POST5 complex; experiment: AzAt photoincorporation into small RNAs (urea-PAGE, RNAse H fragments); type: binding, shrimp (Artemia salina)
# Protocol: FIG. 11 illustrates 8% Urea-PAGE resolution of small RNAs.
# as §1
# Stop-POST5 and 80S-IRES complexes. 1 μM solutions of either Stop-POST5 or 80S-S.IRES, determined by A260, were photolabeled by [^3H]-AzAt. The sample was then either directly purified by ultracentrifugation through a sucrose cushion to determine the photoincorporation stoichiometry in the complex, or subjected to phenol/chloroform extraction to determine the photoincorporation stoichiometry in the total RNA. To determine the photoincorporation background arising from incomplete removal of noncovalently bound photolyzed AzAt, AzAt was prephotolysed for 5 min before adding to the complex, followed by the 20 min incubation in dark at 37° C. and subsequent sucrose cushion purification or RNA extraction as described above.
# (§3) RNaseH Fragment Assay. Total RNA was prepared from the ^3H-AzAt photoaffinity labeled ribosome by phenol-chloroform extraction. RNA: DNA duplexes were formed by incubating total RNA (0.2 μM) with an oligonucleotide pair (1 μM of each, sequences shown Table 1), flanking a specific RNA region, in 22.8 μL of water at 95° C. for 2 min, followed by annealing at 50° C. for 30 s and quenching on ice. Six units (1.2 μL) of RNase H (NEB) and 6 μl of 5×RNase H Reaction Buffer were next added to the RNA: DNA duplex and incubated at 37° C. for 1 hour, followed by phenol-chloroform extraction of RNA. The digested RNA was separated on 12% TBE-Urea PAGE gel, and the target band along with the adjacent upper and bottom gels were sliced by a 2 mm gel cutter. The gel slices were crushed and the ^3H labeled rRNA fragment was extracted in water by vigorously shaking at 70° C. for 30 min, or by overnight extraction in elution buffer (0.3M sodium acetate, 0.25% SDS, 1 mM EDTA). The slurry was removed by centrifugation and the eluted ^3H labeled rRNA in the supernatant was quantified. The stoichiometry of AzAt photoincorporation was calculated based on a gel recovery yield of 20±2%, determined using an authentic sample of [^3H]-Gln-tRNA^Gln.
# Small RNAs. AzAt photoincorporation into the 4 small RNAs (CrPV-IRES, 5.8S rRNA, 5S rRNA, and tRNA) contained within POST5 was examined by one-dimensional (1D) urea-PAGE analysis, by RNA-Seq, and by RNAse H fragment assay (FIG. 11).
# [4] = tested on: rRNA fragments I-IV of Stop-POST5; experiment: RNaseH fragment assay, Stop-POST5; type: binding, shrimp (Artemia salina)
# Protocol: as §3
# Testing the functional pertinence of AzAt photolabeling of 18S A1195, 28S-A3093, 28S-A2672, and 28S-2669. An RNAse H fragment assay was employed to determine whether the potential functionally significant sites identified by LASER-seq correspond to ataluren binding sites relevant for termination activity. In this assay, oligonucleotide hybridization, RNase H digestion and polyacrylamide gel electrophoresis (PAGE) were used to determine the stoichiometry of [^3H]-AzAt photoincorporation into the three rRNA fragments that together include the four nucleotides of interest: Fragment I, 18S-A1195; Fragment II, 26S-A3093; Fragment III, 26S-A2669 and 26S-A2672 (Table 5). The separate addition of four potential competitors of AzAt binding (eRF1 alone, the stably bound eRF1.eRF3.GDPNP complex, ataluren, and the ataluren-like TRID GJ072) was used to test how these affected such photoincorporation. These experiments, the results of which are summarized in Table 5, were performed at two different AzAt concentrations. eRF1 and eRF1.eRF3.GDPNP effects were measured using 300 μM AzAt, paralleling the LASER-Seq PAL experiments.
# [5] = Solubility in aqueous medium; type: physicochemical
# [6] = PAL, 30 μM AzAt, alone or plus competing ligand named as label
# [7] = Stop-POST5, PAL, 30 μM AzAt, alone or plus Ataluren 500 μM / GJ072 150 μM named as label
# T2 sequence (P05453 166-685): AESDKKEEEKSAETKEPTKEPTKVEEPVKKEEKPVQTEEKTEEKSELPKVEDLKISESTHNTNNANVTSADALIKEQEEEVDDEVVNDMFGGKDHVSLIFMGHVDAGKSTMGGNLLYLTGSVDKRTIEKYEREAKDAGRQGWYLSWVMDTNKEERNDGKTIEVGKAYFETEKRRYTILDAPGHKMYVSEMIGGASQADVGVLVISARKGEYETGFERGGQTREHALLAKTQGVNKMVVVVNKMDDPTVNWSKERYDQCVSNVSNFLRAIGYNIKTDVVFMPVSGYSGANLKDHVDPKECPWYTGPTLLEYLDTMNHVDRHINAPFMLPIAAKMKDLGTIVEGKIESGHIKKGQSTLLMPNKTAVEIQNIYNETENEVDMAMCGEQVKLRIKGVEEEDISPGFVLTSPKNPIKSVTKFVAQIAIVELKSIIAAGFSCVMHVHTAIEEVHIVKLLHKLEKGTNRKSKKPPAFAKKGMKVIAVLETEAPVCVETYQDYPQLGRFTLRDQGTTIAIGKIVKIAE
# T2 sequence (P12385 whole entry): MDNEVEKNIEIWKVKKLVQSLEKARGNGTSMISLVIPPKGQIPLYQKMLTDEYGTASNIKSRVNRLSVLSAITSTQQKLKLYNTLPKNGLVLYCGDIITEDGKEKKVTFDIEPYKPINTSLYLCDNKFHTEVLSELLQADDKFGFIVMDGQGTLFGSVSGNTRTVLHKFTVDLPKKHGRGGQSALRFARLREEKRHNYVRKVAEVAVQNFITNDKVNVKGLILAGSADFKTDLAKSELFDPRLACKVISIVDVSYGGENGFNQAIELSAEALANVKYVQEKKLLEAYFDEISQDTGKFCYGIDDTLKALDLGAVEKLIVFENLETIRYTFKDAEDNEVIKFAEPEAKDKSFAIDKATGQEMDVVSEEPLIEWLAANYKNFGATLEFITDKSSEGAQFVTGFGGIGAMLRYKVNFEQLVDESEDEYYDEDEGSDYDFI
# T1 sequence (P12385 whole entry): as above
smiles,measurement,setting,value
CN[C@@H]1[C@@H](O)[C@@H](O[C@@H]2[C@@H](O)[C@H](O[C@H]3O[C@H]([C@@H](C)O)[C@@H](O)[C@H](O)[C@H]3N)[C@@H](N)C[C@H]2N)OC[C@]1(C)O [G418],"EC50 value, G418-stimulated readthrough translocation",[1],fully consistent with previous determination
COc1cccc(-n2c(SCC(=O)Nc3ccc(F)cc3)nnc2-c2ccccn2)c1 [GJ072],effect on AzAt photoincorporation into isolated eRF1,eRF1,substantially inhibited
same,inhibition of AzAt photoincorporation into eRF1 within the ternary complex,[2],less marked
same,Photoincorporation yields into CrPV-IRES nts1-155,"[3]; PAL, 30 μM AzAt, alone (AzAt) or plus competing ligand named as label (Ataluren 500 μM, GJ072 150 μM)",0.51 ± 0.03 mole %
same,Photoincorporation yields into 5S rRNA,[3]; [6],0.15 ± 0.01 mole %
same,Photoincorporation yields into 5.8S rRNA,[3]; [6],0.19 ± 0.07 mole %
same,Photoincorporation yields into CrPV-IRES All,[3]; [6],0.59 ± 0.14 mole %
same,Photoincorporation yields into CrPV-IRES nts156-221,[3]; [6],0.22 ± 0.05 mole %
same,Photoincorporation yields into CrPV-IRES nts222-278,[3]; [6],0.09 ± 0.05 mole %
same,Photoincorporation yields into tRNA^Gln,[3]; [6],0.25 ± 0.03 mole %
same,effect on AzAt labeling of CrPV-IRES fragments 1-155 and 156-221,[3]; RNAse H fragment assay,no clearly significant changes
same,effect on AzAt labeling of small RNAs,[3]; none clearly significant,generally small reductions
same,effect on AzAt photoincorporation into Fragment IV (26S A1437/A1438),[4],neither ataluren nor GJ072 reduce labeling at all
same,effect on AzAt photoincorporation into Fragment I (18S-A1195),[4]; Stop-POST5,strongly inhibited
same,effect on AzAt photoincorporation into Fragment II (A3093),[4]; Stop-POST5,stimulated
same,effect on AzAt photoincorporation into Fragment III (A2669/A2672),[4]; Stop-POST5,only weakly inhibited
same,Photoincorporation yields into 18S A1195/ I: 18S 1151-1206,[4]; [7],0.10 ± 0.01 mole %
same,Photoincorporation yields into 26S-A2669:A2672/ III: 26S 2638-2702,[4]; [7],0.07 ± 0.01 mole %
same,Photoincorporation yields into 26S-A3093/ II: 26S 3069-3113,[4]; [7],0.07 ± 0.01 mole %
same,Photoincorporation yields into RNAse H Fragment IV: 26S 1413-1476,[4]; [7],0.019 ± 0.004%
same,solubility in aqueous medium,[5],limited solubility
